# Results from patent publication US12338263B2, “Antibacterial aminoglycoside derivatives” (priority 2019, dated 2025).
# Read-outs that look alike come from different tables or passages of the source.
# Columns and labels:
# [1] = Toxicity test on HK-2 cells (Alma Blue); format: cell-based; details: human
# Experimental: (§1) On the day of the experiment, when the HK-2 cells in the culture flask reached 80%-90% confluent, the culture medium was discarded, the cells were washed twice with Dulbecco's phosphate buffered saline (DPBS) and digested for 1 to 2 minutes with 3 mL trypsin (T150 cell culture flask), and immediately 9 ml complete medium (RPMI1640+10% FBS) were added to terminate the digestion. After termination, single cells suspension were formed by pipetting gently, which were centrifuged at 1000 […] for 5 minutes. The supernatant was discarded, and fresh complete medium were added, and the cells were pipetted evenly. The actual cell density was measured according to the cell counter and the cell suspension was adjusted to 2.5×10^5 cells/mL. 80 μL of cell suspension was drawn by a row pipettor and added into a 96-well black bottom plate (2×10^4 cell/well), and then incubated in a carbon dioxide incubator for 4.5 hours, which was defined as a cell plate.
# (§2) • a. The compound mother liquor was prepared according to the following table, with complete medium as the solvent;
# (§3) • b. 50 microliters of complete medium was added into columns 3-11 in the 96-v well plate; • c. 75 microliters of test compound (50 mg/mL) and positive control were added to the second column of the 96-v well plate; • d. 25 microliters of compound was drawn from the second column and added into the third column, blown and sucked a few times by a row pipettor, then 25 microliters of liquid was drawn from the third column and added to the fourth column, and subsequently subjected to a 3-fold series dilution until the 10th column. From column 2 to column 11, the compound concentration was 50, 16.67, 5.56, 1.85, 0.62, 0.21, 0.07, 0.02, 0.008, 0 mg/mL; • e. 20 μL compound solutions of various concentrations prepared were transferred by a row pipettor to the corresponding wells of the cell plate, which was defined as a testing plate. Culture of the Testing Plate:
# (§4) All the plates were incubated in an incubator at 37° C., 5% CO2 for 43 hours.
# (§5) After incubation, 10 microliters of Alma Blue was added to the testing plate. The testing plate was immediately incubated in an incubator at 37° C., 5% CO2 for 3 hours. Then the fluorescence value of each well of the testing plate was read by a microplate reader (wavelength Ex 540 nm/Em 585 nm). Then prism software was used to simulate the curve to calculate CC50 value.
# HK-2 cells = assay: Toxicity test on HK-2 cells (Alma Blue); format: cell-based; details: for Maximum inhibition rate: 43 hours incubation plus 3 hours Alma Blue
# Experimental: as §1, §2, §3, §4, §5
# [2] = test system: Klebsiella pneumoniae ATCC-BAA-1705; assay: Drug efficacy in mice (mouse pneumonia model); format: in vivo; details: CD-1 mice, 10 mpk and 30 mpk subcutaneously 2 h and 10 h after infection, read at 24 h; FIG. 2
# Experimental: 21 CD-1 mice were divided into 7 cages, 3 mice per cage, and were injected intraperitoneally with the immunosuppressant cyclophosphamide (150 mpk) on the 4th day.
# On the first day, 7 cages of mice were injected intraperitoneally again with the immunosuppressant cyclophosphamide (100 mpk). The strain Kpn ATCC-BAA-1705 (Klebsiella pneumoniae ATCC-BAA-1705) was recovered on a MHA plate. The recovered colonies were picked and dissolved in saline to prepare Kpn ATCC-BAA-1705 bacterial solution with a concentration of 4.00E+08 CFU/mL for later use in mouse lung infection. The amount of bacterial solution infected in the lung of experimental mice was 50 μL/mouse, that is, the inoculation amount was 2.00E+07 CFU/mouse. At 2 h and 24 h infection, the lung tissue of the mice in control group was taken and placed in 5 mL saline, homogenized, and dotted on a plate with gradient dilution.
# The specific administration of mice was as follows: • (1) 2 h after infection: At the end of 2 h after infection, the lung tissue of the mice in the first cage was taken and placed in 5 mL saline, homogenized, and dotted on a plate with gradient dilution, two duplications for each mouse. The amount of bacteria loaded in the lung tissue of the mouse was counted. Mice in the third and fourth cages were injected respectively with 30 mpk and 10 mpk compound Plazomicin subcutaneously, mice in the fifth and sixth cages were injected respectively with 30 mpk and 10 mpk compound subcutaneously, and mice in the seventh cage were injected with 100 mpk meropenem subcutaneously. • (2) 10 h after infection: Mice in the third and fourth cages were injected respectively with 30 mpk and 10 mpk plazomicin subcutaneously, mice in the fifth and sixth cages were injected respectively with 30 mpk and 10 mpk compound 1 subcutaneously, and mice in the seventh cage were injected with 100 mpk meropenem subcutaneously. At the end of 24 h infection, the lung tissue of the mice in the second to seventh cages was taken and placed in 5 mL saline, homogenized, and dotted on a plate with gradient dilution, two duplications for each mouse. The amount of bacteria carried in the lung tissue of the mouse was counted, and the experimental results were summarized and shown in FIG. 2.
# [3] = test system: auditory function in guinea pigs; assay: Auditory safety: compound action potential (CAP) in guinea pigs; format: in vivo
# Experimental: (§6) Healthy adult guinea pigs (150-250 g) were employed as the research objects, and were randomly divided into saline control group, gentamicin group, compound Plazomicin group and Compound 1 group, with 8 animals in each group. Subcutaneous administration is used, and the following assays were carried out during and after the administration for 14 consecutive days: • 1. To analyze the effects of different drugs on the auditory function of guinea pigs, the compound action potential (CAP) of animals was recorded on the 14th day (29th day, i.e., 4 weeks) after administration. The results obtained were analyzed and the changes of the threshold shift, amplitude, latency and other indicators among different treatment groups were compared. • 2. After the different groups of animals were processed and the auditory function data thereof were collected, the cochlea of the animals was taken out for fixation and staining. Surface preparation of basilar membrane of the cochlea on one side was performed to count the loss of hair cells so as to make a cochlea map, and the cochlea on the other side was decalcified and frozen sectioned. The density of spiral ganglion neurons was counted and compared among groups. Research Results: 1. Administration Method and Treatment
# (§7) Gentamicin from Dalian Meilun Biotechnology Co., Ltd., and Plazomicin and Compound 1 from WuXi AppTec (WuHan) Co., Ltd. are used, the solution of which were prepared just before use each time by using saline for dissolution to the concentration of 50 mg/mL, and the injection dose was 100 mg/kg body weight. Method: subcutaneous injection, and confirmation of no liquid leakage after each injection.
# The compound action potential (CAP) was tested and recorded when clicks and different frequencies of pure tones (1 KHz-32 kHz) were applied to each group of animals, and variations in amplitude and latency were mainly compared when clicks and medium and high frequency pure tones (16, 32 kHz) were applied. The magnitude of amplitude reflects the responsiveness of hair cells and auditory nerves. The larger the amplitude and the greater the slope of the I/O curve were, the better the responsiveness and the better the function were. In addition, the cochlea from apical turn to basal turn was responsive to sounds from low-frequency to high-frequency respectively, which is the frequency correspondence of the cochlear basilar membrane. The functional changes to different frequencies correspond to the different structural and functional changes of the cochlea fromapical turn to basal turn. The length of latency was also related to the function of the hair cells and auditory nerve response. Generally speaking, increasing of the threshold value when the cochlea was injured would inevitably lead to the extension of latency. […] In other words, the extension of latency reflected the decrease of response function. The previous ototoxicity of aminoglycoside antibiotics was mainly concentrated in the high-frequency area. In this study, the gentamicin group was consistent with previous results, as summarized below.
# spiral ganglion neurons = assay: Auditory safety: density of spiral ganglion neurons; format: in vivo, guinea pigs
# Experimental: as §6, §7
# The cochlea of the guinea pig was defined as Turn 1, Turn 2, Turn 3, and Turn 4 from the basal to the apical turn. The spiral ganglion neurons (SGNs) were stained with TuJ on frozen sections, and the density thereof in a specific area were counted and compared between groups. […] Through the two-way ANOVA, there was a significant difference between the groups, F(3, 74)=35.43, p<0.0001 (see FIG. 7).
# cochlear hair cells = assay: Auditory safety: hair cell staining and counting on the basilar membrane of the cochlea; format: in vivo, guinea pigs
# Experimental: as §6, §7
# In order to compare the effects of different drugs on hair cells, hair cell staining and counting on the whole basilar membrane of the cochlea are performed. […] The Plazomicin group had 11.2-28.1% loss of outer hair cells in the high frequency (70-100% from the apical turn) and 16.7-24.2% loss of the outer hair cells at the beginning of the apical turn (10-20%). However, in the Compound 1 group, the loss of outer hair cells only occurred in the low-frequency region (from the top turn −40%), in which the loss rate of outer hair cells was about 2.5-11%, and the outer hair cells were relatively intact in the high frequency area (see FIG. 6 B).
# [4] = 43 hours incubation plus 3 hours Alma Blue, read-out: CC50 of HK-2 cell
# [5] = predicted from toxicity regression curve, read-out: CC50 of compound on cells predicted by software (Prism)
# [6] = guinea pig, in vivo, sc, 100 mg/kg
# [7] = guinea pig, in vivo, sc, 100 mg/kg, 29 day
# [8] = position 10 (% from the apical turn)
# [9] = position 20 (% from the apical turn)
# [10] = position 30 (% from the apical turn)
# [11] = position 40 (% from the apical turn)
# [12] = position 50 (% from the apical turn)
# [13] = position 60 (% from the apical turn)
# [14] = position 70 (% from the apical turn)
# [15] = position 80 (% from the apical turn)
# [16] = position 90 (% from the apical turn)
# [17] = position 100 (% from the apical turn)
molecule,measurement,setting,value
NCC[C@H](O)C(=O)N[C@@H]1C[C@H](N)[C@@H](O[C@H]2O[C@H](CN)[C@@H](O)[C@H](O)[C@H]2O)[C@H](O)[C@H]1O[C@H]1O[C@H](CO)[C@@H](O)[C@H](N)[C@H]1O [Amikacin],CC50 at 43 h,[1]; [4],8.16 mg/mL
same,CC50 at 43 h,[1]; [5],8.16 mg/mL
same,Maximum inhibition rate,HK-2 cells,68.40%
CCN[C@@H]1C[C@H](N)[C@@H](O[C@H]2OC(CN)=CC[C@H]2N)[C@H](O)[C@H]1O[C@H]1OC[C@](C)(O)[C@H](NC)[C@H]1O [Netilmicin],CC50 at 43 h,[1]; [4],10.6 mg/mL
same,CC50 at 43 h,[1]; [5],10.6 mg/mL
same,Maximum inhibition rate,HK-2 cells,48.73%
CN[C@@H]1[C@@H](O)[C@@H](O[C@@H]2[C@@H](O)[C@H](O[C@H]3OC(CNCCO)=CC[C@H]3N)[C@@H](N)C[C@H]2NC(=O)[C@@H](O)CCN)OC[C@]1(C)O [Plazomicin],CC50 at 43 h,[1]; [4],> 10 mg/mL
same,CC50 at 43 h,[1]; [5],19.5 mg/mL
same,toxicity to HK-2 cells compared with Netilmicin and Amikacin,HK-2 cells,significantly lower than that of Netilmicin and Amikacin
same,Maximum inhibition rate,HK-2 cells,35.98%
same,in vivo activity in lung infection model (bacteria in lung tissue),[2],good in vivo activity
same,CAP amplitude under click,[3]; [6],caused hearing damage
same,CAP amplitude at 16 kHz,[3]; [7],282.058±22.569 uv
same,CAP amplitude at 32 kHz,[3]; [7],62.982±7.561 uv
same,hearing damage (CAP amplitude) at 16 kHz,[3]; [7],25.9%
same,hearing damage (CAP amplitude) at 32 kHz,[3]; [7],48.2%
same,damage to spiral ganglion neurons (SGN density vs Control group),spiral ganglion neurons; [6],decrease in SGN density near the apical turn
same,loss of inner hair cells,"cochlear hair cells; guinea pig, in vivo, 29 day",3.5±3.0%
Gentamicin,CAP amplitude at 16 kHz,"[3]; guinea pigs, 100 mg/kg subcutaneous 14 days, 29th day, 16 kHz, 90 dB",373.329±15.332 uv
same,CAP amplitude at 32 kHz,"[3]; guinea pigs, 100 mg/kg subcutaneous 14 days, 29th day, 32 kHz, 90 dB",31.272±5.137 uv
same,CAP amplitude under click,"[3]; guinea pigs, 100 mg/kg subcutaneous 14 days, 29th day, click",consistent with the Control group
same,hearing damage (CAP amplitude) at 32 kHz,"[3]; guinea pigs, 100 mg/kg subcutaneous for 14 consecutive days, 29th day, 32 kHz",74.3%
same,Density of spiral ganglion neurons on Day 29,spiral ganglion neurons; Turn 1 (basal turn),4.407 ± 0.517 n/10000 μm^2
same,Density of spiral ganglion neurons on Day 29,spiral ganglion neurons; Turn 2,5.540 ± 0.757 n/10000 μm^2
same,Density of spiral ganglion neurons on Day 29,spiral ganglion neurons; Turn 3,4.604 ± 0.598 n/10000 μm^2
same,Density of spiral ganglion neurons on Day 29,spiral ganglion neurons; Turn 4 (apical turn),5.259 ± 0.280 n/10000 μm^2
same,damage to spiral ganglion neurons (SGN density vs Control group),"spiral ganglion neurons; guinea pigs, 100 mg/kg subcutaneous 14 days, FIG. 7",obvious damage in each turn
same,loss of outer hair cells,cochlear hair cells; medium and high frequency region (60-100% from the apical turn),12-67.7%
same,loss of inner hair cells,cochlear hair cells; near the end of the basal turn (100% from the apical turn),9.3±4.1%
same,Damage of inner hair cells on Day 29,cochlear hair cells; [8],0%
same,Damage of outer ear hair cells on Day 29,cochlear hair cells; [8],9.5 ± 2.9%
same,Damage of inner hair cells on Day 29,cochlear hair cells; [9],0%
same,Damage of outer ear hair cells on Day 29,cochlear hair cells; [9],4.1 ± 0.7%
same,Damage of inner hair cells on Day 29,cochlear hair cells; [10],0%
same,Damage of outer ear hair cells on Day 29,cochlear hair cells; [10],2.7 ± 0.7%
same,Damage of inner hair cells on Day 29,cochlear hair cells; [11],0%
same,Damage of outer ear hair cells on Day 29,cochlear hair cells; [11],3.2 ± 1.0%
same,Damage of inner hair cells on Day 29,cochlear hair cells; [12],0%
same,Damage of outer ear hair cells on Day 29,cochlear hair cells; [12],3.2 ± 1.5%
same,Damage of inner hair cells on Day 29,cochlear hair cells; [13],0.4 ± 0.4%
same,Damage of outer ear hair cells on Day 29,cochlear hair cells; [13],12.6 ± 5.6%
same,Damage of inner hair cells on Day 29,cochlear hair cells; [14],0.6 ± 0.6%
same,Damage of outer ear hair cells on Day 29,cochlear hair cells; [14],13.6 ± 6.1%
same,Damage of inner hair cells on Day 29,cochlear hair cells; [15],0.2 ± 0.2%
same,Damage of outer ear hair cells on Day 29,cochlear hair cells; [15],12.0 ± 5.4%
same,Damage of inner hair cells on Day 29,cochlear hair cells; [16],2.5 ± 1.7%
same,Damage of outer ear hair cells on Day 29,cochlear hair cells; [16],42.8 ± 8.2%
same,Damage of inner hair cells on Day 29,cochlear hair cells; [17],9.3 ± 4.1%
same,Damage of outer ear hair cells on Day 29,cochlear hair cells; [17],67.7 ± 9.8%
